The text below walks through data of patent publication US20250353864A1, “INDAZOLE CONTAINING MACROCYCLES AND THEIR USE” (BLOSSOMHILL THERAPEUTICS, INC., priority 2022, published 2025).

What all share (type): biochemical
One experiment has as its target ALK (Homo sapiens (Human), UniProt Q9UM73). Briefly: HotSpot radiometric kinase assay, inhibition of ALK kinase activity. The note with it: 10 μM ATP. The procedure: Briefly, specific kinase/substrate pairs along with required cofactors were prepared in reaction buffer; 20 mM Hepes pH 7.5, 10 mM […], 1 mM EGTA, 0.02% Brij35, 0.02 mg/ml BSA, 0.1 mM Na3VO4, 2 mM DTT, 1% DMSO. Compounds were delivered into the reaction, followed […] later by addition of a mixture of ATP (Sigma, St. Louis MO) and ^33P ATP (Perkin Elmer, Waltham MA) to a final concentration of 10 μM. Reactions were carried out at room temperature for 120 min, followed by spotting of the reactions onto P81 ion exchange filter paper (Whatman Inc., Piscataway, NJ). Unbound phosphate was removed by extensive washing of filters in 0.75% phosphoric acid. […] IC50 values and curve fits were obtained using Prism (GraphPad Software).

For the next experiment, the target named is CLK1 (Homo sapiens (Human), UniProt P49759). Nature of the experiment: Inhibition of CLK1 kinase activity evaluated at Nanosyn (ADP-Glo). The settings on record: ADP-Glo luminescence. The gist of the method: (§1)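 ADP-Glo luminescence (40 min depletion, 10 min detection) quantifies ADP from ATP-initiated phosphorylation of substrate by each CLK isoform in HEPES pH 7.5 buffer, 1% DMSO, assay-specific incubation. %-inhibition calculated against uninhibited and enzyme-free controls.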
Sequence of CLK1 (P49759 whole entry, canonical isoform): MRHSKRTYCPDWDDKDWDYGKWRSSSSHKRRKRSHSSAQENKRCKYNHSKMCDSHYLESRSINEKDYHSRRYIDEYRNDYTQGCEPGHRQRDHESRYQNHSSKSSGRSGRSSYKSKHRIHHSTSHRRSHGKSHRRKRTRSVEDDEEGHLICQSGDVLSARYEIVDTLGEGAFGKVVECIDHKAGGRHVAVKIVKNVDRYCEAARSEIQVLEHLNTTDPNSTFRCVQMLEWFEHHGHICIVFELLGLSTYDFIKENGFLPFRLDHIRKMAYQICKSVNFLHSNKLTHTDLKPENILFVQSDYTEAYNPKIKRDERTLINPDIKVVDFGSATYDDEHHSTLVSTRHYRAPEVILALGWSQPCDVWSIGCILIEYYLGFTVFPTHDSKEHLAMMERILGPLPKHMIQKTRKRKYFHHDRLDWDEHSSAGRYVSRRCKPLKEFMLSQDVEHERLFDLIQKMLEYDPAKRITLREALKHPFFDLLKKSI
(In general: ADP-Glo turns the ADP formed in a reaction into a luminescent signal.)

A further experiment addresses CLK2 (Homo sapiens (Human), UniProt P49760). Briefly: Inhibition of CLK2 kinase activity evaluated at Nanosyn (ADP-Glo). The note with it: ADP-Glo luminescence. The gist of the method: as §1
For another experiment, the target named is CLK3 (Homo sapiens (Human), UniProt P49761). Briefly: Inhibition of CLK3 kinase activity evaluated at Nanosyn (ADP-Glo). The settings on record: ADP-Glo luminescence. The gist of the method: as §1
In another experiment the target is CLK4 (Homo sapiens (Human), UniProt Q9HAZ1). Nature of the experiment: Inhibition of CLK4 kinase activity evaluated at Nanosyn (ADP-Glo). The note with it: ADP-Glo luminescence. The gist of the method:
as §1

Another experiment concerns the target EGFR WT (Homo sapiens (Human), UniProt P00533). Nature of the experiment: HotSpot radiometric kinase assay (Reaction Biology), EGFR WT. The settings on record: 10 μM ATP. The gist of the method: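 IC50 values come from curve fits of ^33P incorporation captured on P81 filters after acid washing. Kinase reactions ran 120 min at room temperature with 10 μM ATP, added about 20 min after compound. Buffer was Hepes pH 7.5 containing Mg, DTT and 1% DMSO.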

A further experiment concerns the target EGFR (D770_N771insNPG) (Homo sapiens (Human), UniProt P00533, INS770NPG). Nature of the experiment: HotSpot radiometric kinase assay, EGFR (D770_N771insNPG). The note with it: 10 μM ATP, read-out: EGFR (Δ770_N771insNPG) IC50. The gist of the method:
(§2)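 Enzyme and substrate pairs were exposed to inhibitor for roughly 20 min before radiolabelled ATP (10 μM final) was introduced; the reaction proceeded 120 min at ambient temperature in pH 7.5 buffer with 1% DMSO, and phosphorylated product was captured on P81 filters for IC50 determination.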

A further experiment addresses EGFR Δ746-750 mutant (Homo sapiens (Human), UniProt P00533, DEL746-750). Briefly: HotSpot radiometric kinase assay, EGFR Δ746-750 mutant. The note with it: 10 μM ATP. The gist of the method: as §2
In experiment [1] the target is EGFR Δ746-750/C797S mutant (Homo sapiens (Human), UniProt P00533, C797S/DEL746-750). Nature of the experiment: HotSpot radiometric kinase assay, EGFR Δ746-750/C797S mutant. The settings on record: 10 μM ATP. The gist of the method: as §2
A further experiment deals with EGFR L858R mutant (Homo sapiens (Human), UniProt P00533, L858R). Nature of the experiment: HotSpot radiometric kinase assay, EGFR L858R mutant. The settings on record: 10 μM ATP. The gist of the method: as §2
Sequence of EGFR L858R mutant (P00533 25-1210 L858R): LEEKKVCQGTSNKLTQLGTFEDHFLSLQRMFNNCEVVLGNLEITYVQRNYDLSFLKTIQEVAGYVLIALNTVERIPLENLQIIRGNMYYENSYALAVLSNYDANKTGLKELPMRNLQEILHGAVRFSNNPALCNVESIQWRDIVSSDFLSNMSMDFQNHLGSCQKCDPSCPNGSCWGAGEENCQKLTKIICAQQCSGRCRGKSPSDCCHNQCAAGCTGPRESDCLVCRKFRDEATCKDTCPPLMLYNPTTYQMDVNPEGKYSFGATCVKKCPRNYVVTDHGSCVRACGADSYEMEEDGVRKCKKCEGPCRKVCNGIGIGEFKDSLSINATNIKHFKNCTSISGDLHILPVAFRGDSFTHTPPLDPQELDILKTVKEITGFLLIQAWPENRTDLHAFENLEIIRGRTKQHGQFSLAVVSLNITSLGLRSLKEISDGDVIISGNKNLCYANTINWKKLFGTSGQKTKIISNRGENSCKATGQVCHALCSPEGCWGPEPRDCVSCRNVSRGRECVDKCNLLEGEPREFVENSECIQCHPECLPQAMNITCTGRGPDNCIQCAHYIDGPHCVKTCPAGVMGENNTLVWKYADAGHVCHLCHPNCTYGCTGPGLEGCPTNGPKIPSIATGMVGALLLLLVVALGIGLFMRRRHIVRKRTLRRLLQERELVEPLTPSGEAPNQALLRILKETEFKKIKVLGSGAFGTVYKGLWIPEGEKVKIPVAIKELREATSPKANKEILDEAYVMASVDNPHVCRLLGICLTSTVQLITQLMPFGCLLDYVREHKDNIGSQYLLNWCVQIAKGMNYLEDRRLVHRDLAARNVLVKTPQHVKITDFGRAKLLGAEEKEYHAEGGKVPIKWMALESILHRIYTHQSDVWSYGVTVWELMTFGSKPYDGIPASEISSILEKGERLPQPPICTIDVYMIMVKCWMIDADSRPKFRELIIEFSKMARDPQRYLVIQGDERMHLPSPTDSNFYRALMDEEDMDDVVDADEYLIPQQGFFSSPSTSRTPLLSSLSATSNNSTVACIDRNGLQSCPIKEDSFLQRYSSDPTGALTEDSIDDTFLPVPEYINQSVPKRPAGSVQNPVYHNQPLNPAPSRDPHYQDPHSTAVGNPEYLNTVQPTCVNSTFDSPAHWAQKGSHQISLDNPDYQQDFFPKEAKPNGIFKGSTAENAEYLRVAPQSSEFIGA
Experiment [2] has as its target EGFR L858R/T790M/C797S mutant (Homo sapiens (Human), UniProt P00533, C797S/L858R/T790M). Briefly: HotSpot radiometric kinase assay, EGFR L858R/T790M/C797S mutant. The settings on record: 10 μM ATP. The gist of the method:
as §2

For the next experiment, the target named is EGFR L858R/T790M mutant (Homo sapiens (Human), UniProt P00533, L858R/T790M). Briefly: HotSpot radiometric kinase assay, EGFR L858R/T790M mutant. The note with it: 10 μM ATP. The gist of the method:
as §2

Sequence of EGFR L858R/T790M/C797S mutant (P00533 25-1210 T790M/C797S/L858R): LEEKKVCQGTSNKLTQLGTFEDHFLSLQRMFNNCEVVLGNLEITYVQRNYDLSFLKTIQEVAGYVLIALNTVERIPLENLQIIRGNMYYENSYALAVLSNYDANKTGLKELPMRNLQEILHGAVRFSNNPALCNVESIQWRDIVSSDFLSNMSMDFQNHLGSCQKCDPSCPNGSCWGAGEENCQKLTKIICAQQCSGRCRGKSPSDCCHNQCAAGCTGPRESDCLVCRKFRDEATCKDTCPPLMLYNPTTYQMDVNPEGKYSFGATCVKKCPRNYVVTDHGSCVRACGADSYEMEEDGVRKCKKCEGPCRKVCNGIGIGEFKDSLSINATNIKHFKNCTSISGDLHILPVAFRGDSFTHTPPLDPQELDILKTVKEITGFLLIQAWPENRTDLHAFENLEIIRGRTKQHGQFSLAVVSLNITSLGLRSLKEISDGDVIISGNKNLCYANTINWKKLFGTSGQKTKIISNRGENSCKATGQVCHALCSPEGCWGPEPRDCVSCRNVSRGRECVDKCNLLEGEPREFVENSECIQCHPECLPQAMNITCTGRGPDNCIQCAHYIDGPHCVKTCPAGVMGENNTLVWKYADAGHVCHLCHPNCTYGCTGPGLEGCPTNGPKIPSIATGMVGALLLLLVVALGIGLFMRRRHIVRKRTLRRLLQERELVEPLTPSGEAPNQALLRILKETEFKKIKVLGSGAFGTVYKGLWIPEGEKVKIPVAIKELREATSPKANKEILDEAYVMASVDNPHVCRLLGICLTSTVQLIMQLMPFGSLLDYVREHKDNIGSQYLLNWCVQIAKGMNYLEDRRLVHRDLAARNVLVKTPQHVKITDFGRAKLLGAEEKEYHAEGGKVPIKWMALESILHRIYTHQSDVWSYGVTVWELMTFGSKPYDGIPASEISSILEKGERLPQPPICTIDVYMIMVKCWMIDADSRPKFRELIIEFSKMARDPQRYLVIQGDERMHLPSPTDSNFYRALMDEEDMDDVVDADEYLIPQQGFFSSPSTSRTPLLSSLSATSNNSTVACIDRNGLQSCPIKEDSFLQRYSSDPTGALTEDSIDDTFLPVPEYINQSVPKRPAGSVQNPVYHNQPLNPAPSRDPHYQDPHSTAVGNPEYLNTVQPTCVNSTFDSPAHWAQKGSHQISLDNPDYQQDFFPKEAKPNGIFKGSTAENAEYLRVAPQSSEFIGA
Sequence of EGFR Δ746-750 mutant (P00533 other isoform, or with tags, fused parts or gaps del 1-668/del 746-750 limits assumed): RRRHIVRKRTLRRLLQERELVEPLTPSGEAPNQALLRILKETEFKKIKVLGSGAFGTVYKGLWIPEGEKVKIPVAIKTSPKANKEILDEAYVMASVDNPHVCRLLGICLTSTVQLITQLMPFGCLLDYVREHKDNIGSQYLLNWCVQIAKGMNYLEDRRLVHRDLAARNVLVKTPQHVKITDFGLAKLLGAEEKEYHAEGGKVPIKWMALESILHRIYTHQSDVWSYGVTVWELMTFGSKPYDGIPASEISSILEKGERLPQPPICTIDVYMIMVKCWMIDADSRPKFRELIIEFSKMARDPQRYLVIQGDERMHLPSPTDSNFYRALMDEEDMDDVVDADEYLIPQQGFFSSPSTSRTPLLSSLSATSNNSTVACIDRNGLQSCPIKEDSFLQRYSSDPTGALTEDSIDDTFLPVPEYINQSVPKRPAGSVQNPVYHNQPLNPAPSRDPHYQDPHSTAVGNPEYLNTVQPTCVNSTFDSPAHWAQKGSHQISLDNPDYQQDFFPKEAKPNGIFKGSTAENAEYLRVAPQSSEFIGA
Sequence of EGFR L858R/T790M mutant (P00533 25-1210 T790M/L858R): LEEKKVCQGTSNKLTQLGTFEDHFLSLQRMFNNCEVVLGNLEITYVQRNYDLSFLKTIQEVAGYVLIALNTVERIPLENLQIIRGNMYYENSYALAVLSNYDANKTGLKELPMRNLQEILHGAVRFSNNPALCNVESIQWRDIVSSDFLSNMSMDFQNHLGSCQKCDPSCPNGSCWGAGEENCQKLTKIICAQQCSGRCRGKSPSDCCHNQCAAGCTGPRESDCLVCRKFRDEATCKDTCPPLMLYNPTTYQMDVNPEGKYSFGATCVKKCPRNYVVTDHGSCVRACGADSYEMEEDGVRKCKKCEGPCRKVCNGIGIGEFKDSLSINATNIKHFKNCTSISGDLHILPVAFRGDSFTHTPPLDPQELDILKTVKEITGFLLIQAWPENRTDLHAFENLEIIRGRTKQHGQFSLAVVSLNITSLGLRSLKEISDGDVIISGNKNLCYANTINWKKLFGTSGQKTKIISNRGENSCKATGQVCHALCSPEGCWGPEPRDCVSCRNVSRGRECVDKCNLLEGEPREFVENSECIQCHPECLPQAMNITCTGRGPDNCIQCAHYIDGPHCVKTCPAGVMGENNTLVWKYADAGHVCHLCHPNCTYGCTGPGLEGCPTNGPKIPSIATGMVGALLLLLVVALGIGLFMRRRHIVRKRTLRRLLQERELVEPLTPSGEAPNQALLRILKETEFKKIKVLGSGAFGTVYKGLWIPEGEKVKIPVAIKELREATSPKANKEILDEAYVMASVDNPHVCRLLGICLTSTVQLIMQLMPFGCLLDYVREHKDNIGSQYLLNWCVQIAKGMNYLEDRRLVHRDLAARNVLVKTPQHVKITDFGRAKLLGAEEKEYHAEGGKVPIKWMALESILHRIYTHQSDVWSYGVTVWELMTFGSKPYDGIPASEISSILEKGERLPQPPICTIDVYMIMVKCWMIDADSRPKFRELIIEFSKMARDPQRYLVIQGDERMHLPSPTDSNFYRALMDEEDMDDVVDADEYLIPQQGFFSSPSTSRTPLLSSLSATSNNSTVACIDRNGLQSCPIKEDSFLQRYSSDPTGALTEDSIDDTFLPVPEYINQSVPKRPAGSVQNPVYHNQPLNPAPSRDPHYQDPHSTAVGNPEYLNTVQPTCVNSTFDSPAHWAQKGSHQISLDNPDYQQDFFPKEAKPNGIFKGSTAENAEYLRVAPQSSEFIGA
Sequence of CLK4 (Q9HAZ1 whole entry): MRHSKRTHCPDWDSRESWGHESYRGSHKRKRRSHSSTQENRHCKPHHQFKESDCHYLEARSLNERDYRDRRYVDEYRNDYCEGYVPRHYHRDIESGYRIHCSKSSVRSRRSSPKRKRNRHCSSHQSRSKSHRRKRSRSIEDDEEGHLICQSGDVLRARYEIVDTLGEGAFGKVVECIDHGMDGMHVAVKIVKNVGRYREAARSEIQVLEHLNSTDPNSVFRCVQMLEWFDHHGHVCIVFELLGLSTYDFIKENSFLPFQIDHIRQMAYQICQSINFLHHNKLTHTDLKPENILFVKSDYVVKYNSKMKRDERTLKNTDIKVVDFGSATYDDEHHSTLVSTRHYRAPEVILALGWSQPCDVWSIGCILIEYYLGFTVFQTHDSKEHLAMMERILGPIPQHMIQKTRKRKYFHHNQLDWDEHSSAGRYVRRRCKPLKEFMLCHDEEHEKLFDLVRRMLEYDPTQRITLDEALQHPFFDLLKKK

Regarding `CCOc1nn(CCO)c2c1/C=C/c1n[nH]c3cc(F)c(cc13)-c1cnn(C)c1O[C@H](C)CN(CC)C2` [Ex. 277, 2-[(10R,17E)-16-ethoxy-12-ethyl-19-fluoro-8,10-dimethyl-2,8,10,11,12,13-hexahydro-14H-3,5-ethenotripyrazolo[3,4-f:3′,4′-j:4″,3″-n][1,4]oxazacyclopentadecin-14-yl]ethan-1-ol], the IC50 against ALK came out at 9.87 nM; at CLK1 it was 4.28 nM; on CLK2, 2.99 nM; on CLK3, 51.1 nM; on CLK4 it was 2.77 nM.

Consider `CCN1Cc2c(c(OC)nn2[C@@H](C)CO)/C=C/c2n[nH]c3cc(F)c(cc23)-c2cnn(C)c2O[C@H](C)C1` [Example 289, (2S)-2-[(10R,17E)-12-ethyl-19-fluoro-16-methoxy-8,10-dimethyl-2,8,10,11,12,13-hexahydro-14H-3,5-ethenotripyrazolo[3,4-f:3′,4′-j:4″,3″-n][1,4]oxazacyclopentadecin-14-yl]propan-1-ol], for which the IC50 against ALK stood at 15.4 nM.

For the molecule `Cc1onc2c1/C=C/c1n[nH]c3ccc(cc13)-c1cnn(C)c1OCCOC2` [Example 320, (17E)-8,16-dimethyl-2,8,10,11-tetrahydro-13H-3,5-ethenodipyrazolo[3′,4′:10,11;4″,3″:14,15] [1,4]dioxacyclopentadecino[6,7-c][1,2]oxazole], the IC50 against ALK was 32.2 nM; at CLK1, 0.324 nM; on CLK2, 69.7 nM; on CLK3, 0.2 nM; on CLK4, 0.155 nM.

Take `Cc1snc2c1/C=C/c1n[nH]c3ccc(cc13)-c1cnn(C)c1OCCOC2` [Example 322, (17E)-8,16-dimethyl-2,8,10,11-tetrahydro-13H-3,5-ethenodipyrazolo[3′,4′:10,11;4″,3″:14,15] [1,4]dioxacyclopentadecino[6,7-c][1,2]thiazole]: the IC50 against ALK was 59.9 nM; on CLK1, 1.04 nM; at CLK2, 34.9 nM; at CLK3 it was 0.322 nM; on CLK4 it was 0.636 nM.

Consider `CCOc1nn(CCO)c2c1/C=C/c1n[nH]c3cc(F)c(cc13)-c1cnn(C)c1O[C@@H](C)CN(CC)C2` [Example 288, 2-[(10S,17E)-16-ethoxy-12-ethyl-19-fluoro-8,10-dimethyl-2,8,10,11,12,13-hexahydro-14H-3,5-ethenotripyrazolo[3,4-f:3′,4′-j:4″,3″- n][1,4]oxazacyclopentadecin-14-yl]ethan-1-ol], for which the IC50 on ALK came out at 1.82 nM; on CLK1, 0.32 nM; on CLK2 it was 0.24 nM; on CLK3, 131 nM; on CLK4, 1.31 nM.

Consider `Cc1noc2c1/C=C/c1n[nH]c3ccc(cc13)-c1cnn(C)c1OCCOC2` [Example 321, (17E)-8,16-dimethyl-2,10,11,13-tetrahydro-8H-3,5-ethenodipyrazolo[3′,4′:10,11;4″,3″:14,15] [1,4]dioxacyclopentadecino[7,6-d][1,2]oxazole], for which the 50% inhibitory concentration (IC50) amounted to 20.8 nM against ALK; 1.35 nM on CLK1; 418 nM at CLK2; 1.92 nM at CLK3; 0.847 nM at CLK4.

For the molecule `CCNC(=O)Cn1nc(C)c2c1COCCOc1c(cnn1C)-c1ccc3[nH]nc(c3c1)/C=C/2` [Example 301, 2-[(17E)-8,16-dimethyl-2,10,11,13-tetrahydro-3,5-etheno[1,4]dioxacyclopentadecino[10,11-c:15,14-c′:6,7-c′]tripyrazol-14(8H)-yl]-N-ethylacetamide], 29 nM corresponded to half-maximal inhibition at ALK (IC50).

On to `Cc1nn(C)c2c1/C=C/c1n[nH]c3ccc(cc13)-c1cnn(C)c1O[C@@H](C)CCO2` [Ex. 35, (10S,17E)-8,10,14,16-tetramethyl-2,11,12,14-tetrahydro-8H,10H-3,5-etheno[1,5]dioxacyclopentadecino[10,11-c:15,14-c′:6,7-c″ ]tripyrazole], for which the IC50 was 584 nM on EGFR WT; 1040 nM on EGFR (D770_N771insNPG); 101 nM against EGFR Δ746-750 mutant; 99.6 nM in [1]; 135 nM on EGFR L858R mutant; 30.9 nM in experiment [2]. This molecule yielded an IC50 against ALK of 6.93 nM.

`CCc1nn(C)c2c1/C=C/c1n[nH]c3ccc(cc13)-c1cnn(C)c1O[C@@H](C)COC2` [Example 319, (10S,17E)-16-ethyl-8,10,14-trimethyl-2,8,10,11,13,14-hexahydro-3,5-etheno[1,4]dioxacyclopentadecino[10,11-c:15,14-c′:6,7-c″]tripyrazole]: the IC50 at EGFR WT stood at 766 nM; at EGFR (D770_N771insNPG), 1490 nM; against EGFR Δ746-750 mutant it was 218 nM; in experiment [1] it was 425 nM; against EGFR L858R mutant, 182 nM; at EGFR L858R/T790M mutant, 24.7 nM. Further, the concentration for half-maximal inhibition (IC50) in experiment [2] is 60.5 nM; against ALK it was 5.05 nM.

For `Cc1nn(C)c2c1/C=C/c1n[nH]c3ccc(cc13)-c1cnn(C)c1OCCCO2` [Ex. 8, (17E)-8,14,16-trimethyl-2,11,12,14-tetrahydro-8H,10H-3,5-etheno[1,5]dioxacyclopentadecino[10,11-c:15,14-c′:6,7-c″]tripyrazole], the 50% inhibitory concentration (IC50) against EGFR WT was 884 nM; at EGFR (D770_N771insNPG), 377 nM; against EGFR Δ746-750 mutant, 44.8 nM; against EGFR L858R mutant, 104 nM; in [2], 24.3 nM; against ALK, 2.09 nM.

`Cc1nn(CCO)c2c1/C=C/c1n[nH]c3ccc(cc13)-c1cnn(C)c1OCCCO2` [Ex. 22, 2-[(17E)-8,16-dimethyl-2,8,11,12-tetrahydro-10H,14H-3,5-etheno[1,5]dioxacyclopentadecino[10,11-c:15,14-c′:6,7-c″]tripyrazol-14-yl]ethan-1-ol]: the IC50 worked out at 158 nM at EGFR WT; 94.8 nM at EGFR (D770_N771insNPG); 3.84 nM against EGFR Δ746-750 mutant; 5.1 nM in [1]; 4.49 nM against EGFR L858R mutant; 1.87 nM on EGFR L858R/T790M mutant. Moreover, the values for the IC50 (in experiment [2]; against ALK) were 0.54 nM and 1.35 nM, respectively.

The molecule `Cc1nn(C)c2c1/C=C/c1n[nH]c3ccc(cc13)-c1cnn(C)c1OCCOC2` [Example 303, (17E)-8,14,16-trimethyl-2,8,10,11,13,14-hexahydro-3,5-etheno[1,4]dioxacyclopentadecino[10,11-c:15,14-c′:6,7-c″]tripyrazole] registered an IC50 on ALK of 27.5 nM.

`CC(C)Oc1nn(CCO)c2c1/C=C/c1n[nH]c3ccc(cc13)-c1cnn(C)c1OCC(CF)N(C)C2` (stereo not shown) [Example 226, 2-{(17E)-11-(fluoromethyl)-8,12-dimethyl-16-[(propan-2-yl)oxy]-2,8,10,11.12,13-hexahydro-14H-3,5-ethenotripyrazolo[3,4-f:3′,4′-j:4″,3″-n][1,4]oxazacyclopentadecin-14-yl}ethan-1-ol]: the concentration for half-maximal inhibition (IC50) against EGFR WT was found to be 121 nM; on EGFR (D770_N771insNPG), 222 nM; at EGFR Δ746-750 mutant, 8.98 nM; in experiment [1], 6.43 nM; against EGFR L858R mutant, 50.7 nM; against EGFR L858R/T790M mutant it was 1.19 nM. The 50% inhibitory concentration (IC50) worked out at 0.6 nM in experiment [2]; 0.87 nM at CLK1; 0.99 nM at CLK2; 369 nM on CLK3; 1.44 nM at CLK4.

Take `Cc1nn(C)c2c1/C=C/c1n[nH]c3ccc(cc13)-c1cnn(C)c1O[C@@H]1CCCN(C2)C1` [Example 122, (10R,19E)-8,16,18-trimethyl-2,8,10,11,12,13,15,16-octahydro-3,5-etheno-10,14-methanotripyrazolo[3,4-h:3′,4′-l:4″,3″-p][1,6]oxazacycloheptadecine]: the IC50 against EGFR WT is 94.2 nM; on EGFR (D770_N771insNPG), 58 nM; on EGFR Δ746-750 mutant it was 7.45 nM; in experiment [1] it was 6.79 nM; at EGFR L858R mutant it was 11.9 nM; at EGFR L858R/T790M mutant, 1.46 nM. Also, the IC50 in experiment [2] was 2.09 nM; on CLK1, 0.27 nM; on CLK2, 0.15 nM; at CLK3, 21.2 nM; on CLK4, 0.6 nM.

A word on the IC50: it is the concentration at which inhibition is half-maximal.
